Data from the RepoRT retention time repository.

Assay: HILIC, Waters ACQUITY UPLC BEH Amide, 100 × 2.1 mm, 1.7 µm; A: water + 0.125% formic acid + 10 mM ammonium formate; B: 5% water + 95% acetonitrile + 0.125% formic acid + 10 mM ammonium formate; gradient (min/%B) 0/100 2/100 7.7/70 9.5/40 10.25/30 12.75/100 17/100
Details: stereoisomer not certain

Row | SMILES | LC retention time
1 | O=C(O)CCCCC1SCC2NC(=O)NC21 (stereo not given) [Biotin] | 2.85 min
2 | NC(=O)NC(N)=O [Biuret] | 2.73 min
3 | O=C1CN=C(c2ccccn2)c2cc(Br)ccc2N1 [Bromazepam] | 1.3 min
4 | COc1cc2c(cc1OC)C13CCN4CC5=CCOC6CC(=O)N2C1C6C5CC43 (stereo not given) [Brucine] | 4.57 min
5 | COc1cc(OC)c(C(=O)CCCN2CCCC2)c(OC)c1 [Buflomedil] | 2.34 min
6 | CC(NC(C)(C)C)C(=O)c1cccc(Cl)c1 (stereo not given) [Bupropion] | 2.22 min
7 | CCCC(=O)O [Butanoic acid] | 10.2 min
8 | CCCC(=O)NCC(=O)O [Butyrylglycine] | 3.73 min
9 | NCCCCCN [Cadaverine] | 8.99 min
10 | NC(N)=NOCCC(N)C(=O)O (stereo not given) [Canavanine] | 9.42 min
11 | NC(CSCC(=O)O)C(=O)O (stereo not given) [Carbocysteine] | 9.04 min
12 | C[N+](C)(C)CC(O)CC(=O)[O-] (stereo not given) [Carnitine] | 7.83 min
13 | C=CC1=C(C(=O)O)N2C(=O)C(NC(=O)C(=NOCC(=O)O)c3csc(N)n3)C2SC1 (stereo not given) [Cefixime] | 7.79 min
14 | CN=C1CN(O)C(c2ccccc2)=c2cc(Cl)ccc2=N1 [Chlordiazepoxide] | 1.35 min
15 | C[N+](C)(C)CCO [Choline [M]+] | 5.18 min
16 | CC1(C)CC1C(=O)NC(=CCCCCSCC(N)C(=O)O)C(=O)O (stereo not given) [Cilastatin] | 7.63 min
17 | O=CC=Cc1ccccc1 [Cinnamaldehyde] | 9.18 min

Row | SMILES | LC retention time
18 | NC(=O)NCCCC(N)C(=O)O (stereo not given) [Citrulline] | 8.74 min
19 | CCC1OC(=O)C(C)C(OC2CC(C)(OC)C(O)C(C)O2)C(C)C(OC2OC(C)CC(N(C)C)C2O)C(C)(OC)CC(C)C(=O)C(C)C(O)C1(C)O (stereo not given) [Clarithromycin] | 3 min
20 | CN1C(=O)CC(=O)N(c2ccccc2)c2cc(Cl)ccc21 [Clobazam] | 1.1 min
21 | NC(=NCc1ccc(Cl)cc1)SCCCc1cnc[nH]1 [Clobenpropit] | 6.13 min
22 | CCOC(=O)C1C(OC(=O)c2ccccc2)CC2CCC1N2C (stereo not given) [Cocaethylene] | 2.12 min
23 | COC(=O)C1C(OC(=O)c2ccccc2)CC2CCC1N2C (stereo not given) [Cocaine] | 2.2 min
24 | CC12CCC(=O)C=C1CCC1C2C(O)CC2(C)C(C(=O)CO)CCC12 (stereo not given) [Corticosterone] | 1.25 min
25 | CN(CC(=O)O)C(=N)N [Creatine] | 8.15 min
26 | NC1CCCCC1 [Cyclohexanamine] | 5.1 min
27 | NC(CCSCC(N)C(=O)O)C(=O)O (stereo not given) [Cystathionine] | 9.91 min
28 | NC(CS(=O)(=O)O)C(=O)O (stereo not given) [Cysteic acid] | 8.92 min
29 | NC(CS)C(=O)O (stereo not given) [Cysteine] | 5.31 min
30 | NC(CSSCC(N)C(=O)O)C(=O)O (stereo not given) [Cystine] | 9.97 min
31 | CCCCCCCCCC=O [Decanal] | 2.17 min
32 | CC(CCC(=O)O)C1CCC2C3C(=O)CC4CC(=O)CCC4(C)C3CC(=O)C12C (stereo not given) [Dehydrocholic acid] | 1.16 min
33 | CC12CCC3C(CC=C4CC(O)CCC43C)C1CCC2=O (stereo not given) [Dehydroepiandrosterone] | 1.03 min

Results, then the compound that gave them:

Row | LC retention time | SMILES
34 | 1.8 min | O=C1CC2(CCCC2)CC(=O)N1CCNCC1COc2ccccc2O1 (stereo not given) [Binospirone]
35 | 3.47 min | CC(C)NCC(O)COc1ccc(COCCOC(C)C)cc1 (stereo not given) [Bisoprolol]
36 | 1.21 min | Cn1c(=O)c2c(ncn2C)n(C)c1=O [Caffeine]
37 | 1.05 min | c1ccc2c(-c3nccs3)c[nH]c2c1 [Camalexin]
38 | 1 min | COc1cc(CNC(=O)CCCCC=CC(C)C)ccc1O [Capsaicin]
39 | 1.21 min | NC(=O)N1c2ccccc2C=Cc2ccccc21 [Carbamazepine]
40 | 1.11 min | CC(Cc1ccc(C(C)C(=O)O)cc1)C(=O)O (stereo not given) [Carboxyibuprofen]
41 | 9.54 min | NCCC(=O)NC(Cc1cnc[nH]1)C(=O)O (stereo not given) [Carnosine]
42 | 3.17 min | COc1ccccc1OCCNCC(O)COc1cccc2[nH]c3ccccc3c12 (stereo not given) [Carvedilol]
43 | 5.61 min | NC(C(=O)NC1C(=O)N2C(C(=O)O)=C(Cl)CSC12)c1ccccc1 (stereo not given) [Cefaclor]
44 | 7.98 min | NC(C(=O)NC1C(=O)N2C(C(=O)O)=C(CSc3cn[nH]n3)CSC12)c1ccc(O)cc1 (stereo not given) [Cefatrizine]
45 | 6.94 min | C=CC1=C(C(=O)O)N2C(=O)C(NC(=O)C(=NO)c3csc(N)n3)C2SC1 (stereo not given) [Cefdinir]
46 | 1.18 min | COCc1c(C(C)C)nc(C(C)C)c(C=CC(O)CC(O)CC(=O)O)c1-c1ccc(F)cc1 (stereo not given) [Cerivastatin]
47 | 5.29 min | NCC1CCC(C(=O)Oc2ccc(CCC(=O)O)cc2)CC1 (stereo not given) [Cetraxate]
48 | 6.68 min | O=C(C=Cc1ccc(O)c(O)c1)OC1CC(O)(C(=O)O)CC(O)C1O (stereo not given) [Chlorogenic acid]
49 | 2.54 min | CN(C)CCC(c1ccc(Cl)cc1)c1ccccn1 (stereo not given) [Chlorpheniramine]
50 | 2.61 min | CN(C)CCCSc1ccccc1NC(=O)C=Cc1ccccc1 [Cinanserin]
51 | 2.28 min | COc1cc(N)c(Cl)cc1C(=O)NC1CCN(CCCOc2ccc(F)cc2)CC1OC (stereo not given) [Cisapride]
52 | 1.95 min | Nc1nc(Cl)nc2c1ncn2C1CC(O)C(CO)O1 (stereo not given) [Cladribine]

Row | LC retention time | SMILES
53 | 1.78 min | CC(C)N=c1cc2n(-c3ccc(Cl)cc3)c3ccccc3nc-2cc1Nc1ccc(Cl)cc1 [Clofazimine]
54 | 2.31 min | CN(C)CCCN1c2ccccc2CCc2ccc(Cl)cc21 [Clomipramine]
55 | 2.85 min | Clc1cccc(Cl)c1NC1=NCCN1 [Clonidine]
56 | 1.14 min | COc1cc(C=CC=O)ccc1O [Coniferylaldehyde]
57 | 3.54 min | Nc1ncnc2c1ncn2C1OC(CO)CC1O (stereo not given) [Cordycepin]
58 | 1.29 min | CC12CCC(=O)C=C1CCC1C2C(=O)CC2(C)C1CCC2(O)C(=O)CO (stereo not given) [Cortisone]
59 | 1.15 min | CC12CCC(=O)C=C1CCC1C2CCC2(C)C1CCC2(O)C(=O)CO (stereo not given) [Cortodoxone]
60 | 1.52 min | COc1cc2c(cc1OC)C1C(C)c3ccc(OC)c(OC)c3CN1CC2 (stereo not given) [Corydaline]
61 | 1.49 min | CN1C(=O)CCC1c1cccnc1 (stereo not given) [Cotinine]
62 | 1.08 min | O=c1ccc2ccccc2o1 [Coumarin]
63 | 4.93 min | CN1CC(=O)NC1=N [Creatinine]
64 | 0.97 min | CC=CC(=O)N(CC)c1ccccc1C [Crotamiton]
65 | 1.29 min | CC(C)CC1NC(=O)C2CCCN2C1=O (stereo not given) [Cyclo(Leu-Pro)]
66 | 2.31 min | CN1CCC(=C2c3ccccc3C=Cc3ccccc32)CC1 [Cyproheptadine]
67 | 9.48 min | Nc1ccn(C2OC(COP(=O)(O)O)C(O)C2O)c(=O)n1 (stereo not given) [Cytidine-5'-monophosphate]
68 | 5.9 min | Nc1ccnc(=O)[nH]1 [Cytosine]
69 | 1.39 min | O=c1c(-c2ccc(O)cc2)coc2cc(O)ccc12 [Daidzein]
70 | 8.25 min | O=c1ccn(C2CC(O)C(COP(=O)(O)O)O2)c(=O)[nH]1 (stereo not given) [Deoxyuridine monophosphate]
